# Patent US20210070748A1, “INHIBITORS OF BRUTONS TYROSINE KINASE” (Pharmacyclics LLC, priority 2015, published 2021)
# Legend:
# Assay type in all cases: biochemical
# [1] = target: T1, BTK-WT (Homo sapiens, UniProt Q06187); experiment: Btk in vitro inhibitory activity (one of Method A TR-FRET, Method B electrophoretic mobility shift, Method C radiometric filter binding); conditions: D-compounds panel data; read-out: IC50 BTK-WT
# T1 construct: purified from insect cells as a full-length construct containing an N-terminal 6X-His tag; His6 (N); made in house; host or cells: insect cells (baculovirus Sf21 in Method B)
# T1 sequence (Q06187 whole entry): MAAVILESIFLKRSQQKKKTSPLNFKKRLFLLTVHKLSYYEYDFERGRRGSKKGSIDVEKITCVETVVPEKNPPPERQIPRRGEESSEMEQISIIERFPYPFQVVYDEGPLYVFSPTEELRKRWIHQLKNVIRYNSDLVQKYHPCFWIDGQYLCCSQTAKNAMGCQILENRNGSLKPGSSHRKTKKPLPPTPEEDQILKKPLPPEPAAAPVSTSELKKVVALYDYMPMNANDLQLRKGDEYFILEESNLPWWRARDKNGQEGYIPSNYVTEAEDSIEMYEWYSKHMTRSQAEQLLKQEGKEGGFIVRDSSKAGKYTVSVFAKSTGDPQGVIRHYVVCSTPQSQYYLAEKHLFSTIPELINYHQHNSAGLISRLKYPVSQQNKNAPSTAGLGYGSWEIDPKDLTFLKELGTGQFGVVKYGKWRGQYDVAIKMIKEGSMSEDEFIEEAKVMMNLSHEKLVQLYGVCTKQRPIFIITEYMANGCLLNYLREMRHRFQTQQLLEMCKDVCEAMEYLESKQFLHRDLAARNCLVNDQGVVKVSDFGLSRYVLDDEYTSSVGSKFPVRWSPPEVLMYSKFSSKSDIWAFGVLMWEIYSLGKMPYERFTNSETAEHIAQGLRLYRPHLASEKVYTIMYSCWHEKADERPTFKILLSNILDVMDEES
# [2] = target: LCK (Homo sapiens, UniProt P06239); experiment: Inhibition of a panel of kinases, in vitro HotSpot kinase assay: LCK; conditions: D-compounds panel data; 1 μM ATP; read-out: IC50 LCK
# Chain of LCK (P06239 whole entry): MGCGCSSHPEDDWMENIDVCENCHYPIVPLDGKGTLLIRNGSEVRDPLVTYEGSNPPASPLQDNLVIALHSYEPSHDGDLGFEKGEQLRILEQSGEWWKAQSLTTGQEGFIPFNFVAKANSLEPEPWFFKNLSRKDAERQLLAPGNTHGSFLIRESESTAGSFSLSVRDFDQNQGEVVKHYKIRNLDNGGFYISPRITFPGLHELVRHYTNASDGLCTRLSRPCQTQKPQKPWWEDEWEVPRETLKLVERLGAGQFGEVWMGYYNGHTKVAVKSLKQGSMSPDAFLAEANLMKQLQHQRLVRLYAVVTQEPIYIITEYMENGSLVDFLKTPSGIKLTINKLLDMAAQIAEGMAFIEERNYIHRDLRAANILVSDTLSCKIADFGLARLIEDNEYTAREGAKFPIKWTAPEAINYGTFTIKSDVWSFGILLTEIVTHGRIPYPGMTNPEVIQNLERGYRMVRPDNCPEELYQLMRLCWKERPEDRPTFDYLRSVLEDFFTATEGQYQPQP
# [3] = target: T2, ITK (Homo sapiens, UniProt Q08881); experiment: Inhibition of a panel of kinases, in vitro HotSpot kinase assay: ITK; conditions: D-compounds panel data; 1 μM ATP
# T2 sequence (Q08881 1-620): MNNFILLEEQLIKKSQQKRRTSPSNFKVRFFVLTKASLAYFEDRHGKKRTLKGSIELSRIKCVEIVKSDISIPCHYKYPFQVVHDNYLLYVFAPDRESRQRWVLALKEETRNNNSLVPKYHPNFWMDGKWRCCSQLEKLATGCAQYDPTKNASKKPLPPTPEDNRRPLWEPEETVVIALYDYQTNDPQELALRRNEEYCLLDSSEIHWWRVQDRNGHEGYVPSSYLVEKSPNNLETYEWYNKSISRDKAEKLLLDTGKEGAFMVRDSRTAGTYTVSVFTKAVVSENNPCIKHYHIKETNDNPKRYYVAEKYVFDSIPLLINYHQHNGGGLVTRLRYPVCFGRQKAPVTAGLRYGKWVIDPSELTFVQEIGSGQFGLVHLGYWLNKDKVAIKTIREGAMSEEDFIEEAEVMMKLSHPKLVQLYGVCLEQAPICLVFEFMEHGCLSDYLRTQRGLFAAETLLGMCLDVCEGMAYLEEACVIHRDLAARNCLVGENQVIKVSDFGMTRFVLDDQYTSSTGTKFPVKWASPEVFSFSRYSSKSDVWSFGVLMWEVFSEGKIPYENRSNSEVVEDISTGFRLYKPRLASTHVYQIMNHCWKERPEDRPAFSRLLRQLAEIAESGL
# Description: (§1) The degree of inhibition of a panel of kinases is determined using the in vitro HotSpot kinase assay (purified enzymes, ^33P-ATP, an appropriate substrate and 1 μM ATP).
# [4] = target: SRC (Homo sapiens, UniProt P12931); experiment: Inhibition of a panel of kinases, in vitro HotSpot kinase assay: SRC; conditions: D-compounds panel data; 1 μM ATP
# Chain of SRC (P12931 whole entry): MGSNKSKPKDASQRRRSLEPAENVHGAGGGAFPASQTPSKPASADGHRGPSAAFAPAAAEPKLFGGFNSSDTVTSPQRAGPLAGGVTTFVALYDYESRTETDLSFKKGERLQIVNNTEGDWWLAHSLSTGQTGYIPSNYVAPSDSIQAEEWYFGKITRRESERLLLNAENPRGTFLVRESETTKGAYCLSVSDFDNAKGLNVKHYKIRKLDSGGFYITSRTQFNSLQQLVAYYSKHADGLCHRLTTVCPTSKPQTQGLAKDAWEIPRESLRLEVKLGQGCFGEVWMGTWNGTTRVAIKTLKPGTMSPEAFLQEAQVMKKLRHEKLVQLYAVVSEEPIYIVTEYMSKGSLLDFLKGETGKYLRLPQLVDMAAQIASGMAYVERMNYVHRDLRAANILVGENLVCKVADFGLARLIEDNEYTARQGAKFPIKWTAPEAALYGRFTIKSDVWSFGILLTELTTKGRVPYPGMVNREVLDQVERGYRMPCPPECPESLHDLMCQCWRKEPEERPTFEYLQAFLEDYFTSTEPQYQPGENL
# Description: as §1
# [5] = target: T3, TEC (Homo sapiens, UniProt P42680); experiment: Inhibition of a panel of kinases, in vitro HotSpot kinase assay: TEC; conditions: D-compounds panel data; 1 μM ATP
# T3 sequence (P42680 1-631): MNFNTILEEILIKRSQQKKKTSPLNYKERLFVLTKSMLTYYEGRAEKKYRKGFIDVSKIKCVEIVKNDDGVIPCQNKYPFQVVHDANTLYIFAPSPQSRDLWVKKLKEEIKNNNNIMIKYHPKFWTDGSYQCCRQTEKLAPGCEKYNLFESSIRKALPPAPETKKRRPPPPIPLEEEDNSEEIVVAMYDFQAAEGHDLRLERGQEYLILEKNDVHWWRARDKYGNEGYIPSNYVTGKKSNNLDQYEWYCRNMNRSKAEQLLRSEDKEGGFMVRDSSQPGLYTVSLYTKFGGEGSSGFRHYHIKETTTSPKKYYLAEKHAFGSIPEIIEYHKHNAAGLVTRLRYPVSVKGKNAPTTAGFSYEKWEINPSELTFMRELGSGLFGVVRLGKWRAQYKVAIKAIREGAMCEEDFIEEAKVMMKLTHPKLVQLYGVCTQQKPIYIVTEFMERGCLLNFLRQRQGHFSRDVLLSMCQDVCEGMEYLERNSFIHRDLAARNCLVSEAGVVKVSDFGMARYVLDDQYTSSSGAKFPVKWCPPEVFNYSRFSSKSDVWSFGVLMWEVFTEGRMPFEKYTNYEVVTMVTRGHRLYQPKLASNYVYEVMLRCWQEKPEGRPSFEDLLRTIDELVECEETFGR
# Description: as §1
SMILES,IC50 [1] [nM],IC50 [2] [nM],IC50 [3] [nM],IC50 [4] [nM],IC50 [5] [nM]
"COCCn1cc(Nc2nc(N3CCC[C@@H](NC(=O)c4ccc(C5CC5)cc4)[C@H]3C)cnc2C(N)=O)cn1 [Example D-270, 5-[(2R,3R)-3-(4-cyclopropylbenzamido)-2-methylpiperidin-1-yl]-3-{[1-(2-methoxyethyl)-1H-pyrazol-4-yl]amino}pyrazine-2-carboxamide]",≤ 10,100 to 1000,100 to 1000,100 to 1000,100 to 1000
"Cc1c(Nc2nc(N3CCC[C@@H](NC(=O)c4ccc(C5CC5)cc4)[C@H]3C)cnc2C(N)=O)cnn1C [Example D-271, 5-[(2R,3R)-3-(4-cyclopropylbenzamido)-2-methylpiperidin-1-yl]-3-[(1,5-dimethyl-1H-pyrazol-4-yl)amino]pyrazine-2-carboxamide]",10 to 100,1000 to 10000,> 10000,1000 to 10000,1000 to 10000
"Cc1nn(C)cc1Nc1nc(N2CCC[C@@H](NC(=O)c3ccc(C4CC4)cc3)[C@H]2C)cnc1C(N)=O [Example D-272, 5-[(2R,3R)-3-(4-cyclopropylbenzamido)-2-methylpiperidin-1-yl]-3-[(1,3-dimethyl-1H-pyrazol-4-yl)amino]pyrazine-2-carboxamide]",10 to 100,> 10000,> 10000,> 10000,1000 to 10000
"CCn1cc(Nc2nc(N3CCC[C@@H](NC(=O)c4ccc(C5CC5)cc4)[C@H]3C)cnc2C(N)=O)cn1 [Example D-273, 5-[(2R,3R)-3-(4-cyclopropylbenzamido)-2-methylpiperidin-1-yl]-3-[(1-ethyl-1H-pyrazol-4-yl)amino]pyrazine-2-carboxamide]",≤ 10,100 to 1000,100 to 1000,100 to 1000,10 to 100
"C[C@@H]1[C@H](NC(=O)c2ccc(C3CC3)cc2)CCCN1c1cnc(C(N)=O)c(Nc2cnn(C3CCOCC3)c2)n1 [Example D-274, 5-[(2R,3R)-3-(4-cyclopropylbenzamido)-2-methylpiperidin-1-yl]-3-{[1-(oxan-4-yl)-1H-pyrazol-4-yl]amino}pyrazine-2-carboxamide]",≤ 10,100 to 1000,100 to 1000,10 to 100,≤ 10
"C[C@@H]1[C@H](NC(=O)c2ccc(C3CC3)cc2)CCCN1c1cnc(C(N)=O)c(Nc2cnn(C(F)F)c2)n1 [Example D-275, 5-[(2R,3R)-3-(4-cyclopropylbenzamido)-2-methylpiperidin-1-yl]-3-{[1-(difluoromethyl)-1H-pyrazol-4-yl]amino}pyrazine-2-carboxamide]",≤ 10,1000 to 10000,1000 to 10000,100 to 1000,10 to 100
"C[C@@H]1[C@H](NC(=O)c2ccc(C3CC3)cc2)CCCN1c1cnc(C(N)=O)c(Nc2cnn(C)c2C(F)(F)F)n1 [Example D-276, 5-[(2R,3R)-3-(4-cyclopropylbenzamido)-2-methylpiperidin-1-yl]-3-{[1-methyl-5-(trifluoromethyl)-1H-pyrazol-4-yl]amino}pyrazine-2-carboxamide]",1000 to 10000,> 10000,> 10000,> 10000,> 10000
"C[C@@H]1[C@H](NC(=O)c2ccc(C3CC3)cc2)CCCN1c1nnc(C(N)=O)c(Nc2cnn(C)c2)n1 [Example D-277, 3-[(2R,3R)-3-(4-cyclopropylbenzamido)-2-methylpiperidin-1-yl]-5-[(1-methyl-1H-pyrazol-4-yl)amino]-1,2,4-triazine-6-carboxamide]",≤ 10,10 to 100,100 to 1000,10 to 100,≤ 10
"C[C@@H]1[C@H](NC(=O)c2ccc(C3CC3)cc2)CCCN1c1cnc(C(N)=O)c(Nc2cn(C)nc2C(F)(F)F)n1 [Example D-278, 5-[(2R,3R)-3-(4-cyclopropylbenzamido)-2-methylpiperidin-1-yl]-3-{[1-methyl-3-(trifluoromethyl)-1H-pyrazol-4-yl]amino}pyrazine-2-carboxamide]",> 10000,> 10000,> 10000,> 10000,> 10000
"C[C@@H]1[C@H](NC(=O)c2ccc(C3CC3)cc2)CCCN1c1cnc(C(N)=O)c(Nc2cnn(C3CC3)c2)n1 [Example D-279, 3-[(1-cyclopropyl-1H-pyrazol-4-yl)amino]-5-[(2R,3R)-3-(4-cyclopropylbenzamido)-2-methylpiperidin-1-yl]pyrazine-2-carboxamide]",≤ 10,100 to 1000,100 to 1000,100 to 1000,≤ 10
"C[C@@H]1[C@H](NC(=O)c2ccc(C3CC3)cc2)CCCN1c1cnc(C(N)=O)c(Nc2cnn(C3CCNCC3)c2)n1 [Example D-280, 5-[(2R,3R)-3-(4-cyclopropylbenzamido)-2-methylpiperidin-1-yl]-3-{[1-(piperidin-4-yl)-1H-pyrazol-4-yl]amino}pyrazine-2-carboxamide]",≤ 10,< 10,10 to 100,≤ 10,≤ 10
"C[C@@H]1[C@H](NC(=O)c2ccc(C3CC3)cc2)CCCN1c1cnc(C(N)=O)c(Nc2cnn(CCO)c2)n1 [Example D-281, 5-[(2R,3R)-3-(4-cyclopropylbenzamido)-2-methylpiperidin-1-yl]-3-{[I-(2-hydroxyethyl)-1H-pyrazol-4-yl]amino}pyrazine-2-carboxamide]",≤ 10,100 to 1000,100 to 1000,100 to 1000,10 to 100
"C[C@@H]1[C@H](NC(=O)c2ccc(C3CC3)cc2)CCCN1c1cnc(C(N)=O)c(Nc2cn[nH]c2)n1 [Example D-282, 5-[(2R,3R)-3-(4-cyclopropylbenzamido)-2-methylpiperidin-1-yl]-3-[(1H-pyrazol-4-yl)amino]pyrazine-2-carboxamide]",≤ 10,100 to 1000,100 to 1000,100 to 1000,10 to 100
"CC(=O)N1CCC(n2cc(Nc3nc(N4CCC[C@@H](NC(=O)c5ccc(C6CC6)cc5)[C@H]4C)cnc3C(N)=O)cn2)CC1 [Example D-283, 3-{[1-(1-acetylpiperidin-4-yl)-1H-pyrazol-4-yl]amino}-5-[(2R,3R)-3-(4-cyclopropylbenzamido)-2-methylpiperidin-1-yl]pyrazine-2-carboxamide]",≤ 10,10 to 100,100 to 1000,10 to 100,≤ 10
"C[C@@H]1[C@H](NC(=O)c2ccc(C3CC3)cc2)CCCN1c1cnc(C(N)=O)c(Nc2cnn(-c3ccncc3)c2)n1 [Example D-284, 5-[(2R,3R)-3-(4-cyclopropylbenzamido)-2-methylpiperidin-1-yl]-3-{[1-(pyridin-4-yl)-1H-pyrazol-4-yl]amino}pyrazine-2-carboxamide]",≤ 10,10 to 100,100 to 1000,10 to 100,≤ 10
"C[C@@H]1[C@H](NC(=O)c2ccc(C(C)(C)C)cc2)CCCN1c1nnc(C(N)=O)c(Nc2cnn(C)c2)n1 [Example D-285, 3-[(2R,3R)-3-(4-tert-butylbenzamido)-2-methylpiperidin-1-yl]-5-[(1-methyl-1H-pyrazol-4-yl)amino]-1,2,4-triazine-6-carboxamide]",≤ 10,10 to 100,10 to 100,10 to 100,≤ 10
"C[C@@H]1[C@H](NC(=O)N(C)C)CCCN1c1nnc(C(N)=O)c(Nc2cnn(C)c2)n1 [Example D-286, 3-[(2R,3R)-3-[(dimethylcarbamoyl)amino]-2-methylpiperidin-1-yl]-5-[(1-methyl-1H-pyrazol-4-yl)amino]-1,2,4-triazine-6-carboxamide]",≤ 10,100 to 1000,10 to 100,10 to 100,10 to 100
